# Key:
# Assay type in all cases: functional
# Aspergillus niger = assay: Antifungal activity against Aspergillus niger ATCC 1015 assessed as growth inhibition by broth microdilution method
# Pseudomonas aeruginosa = assay: Antibacterial activity against Pseudomonas aeruginosa ATCC 27853 assessed as growth inhibition by broth microdilution method
# Staphylococcus aureus = assay: Antibacterial activity against Staphylococcus aureus ATCC 25923 assessed as growth inhibition by broth microdilution method
# Escherichia coli = assay: Antibacterial activity against Escherichia coli ATCC 25922 assessed as growth inhibition by broth microdilution method
# Candida albicans = assay: Antifungal activity against Candida albicans ATCC 10231 assessed as growth inhibition by broth microdilution method
# Enterococcus faecalis = assay: Antibacterial activity against Enterococcus faecalis ATCC 29212 assessed as growth inhibition by broth microdilution method
SMILES,MIC (Aspergillus niger) [µg/mL],MIC (Pseudomonas aeruginosa) [µg/mL],MIC (Staphylococcus aureus) [µg/mL],MIC (Escherichia coli) [µg/mL],MIC (Candida albicans) [µg/mL],MIC (Enterococcus faecalis) [µg/mL]
O=C(CSc1nc2ccccc2[nH]1)Nc1ccc(C(=O)/C=C/c2ccccc2)cc1,125,250,250,125,250,250
COc1cc(/C=C/C(=O)c2ccc(NC(=O)CSc3nc4ccccc4[nH]3)cc2)ccc1O,125,250,15.6,62.5,62.5,250
O=C(CSc1nc2ccccc2[nH]1)Nc1ccc(C(=O)/C=C/c2cccc(Br)c2)cc1,250,125,31.2,62.5,250,250
O=C(CSc1nc2ccccc2[nH]1)Nc1ccc(C(=O)/C=C/c2ccc([N+](=O)[O-])cc2)cc1,62.5,125,62.5,62.5,125,125
O=C(CSc1nc2ccccc2[nH]1)Nc1ccc(C(=O)/C=C/c2cccc(Cl)c2)cc1,125,125,31.2,62.5,250,125
O=C(O)c1cn(C2CC2)c2cc(N3CCNCC3)c(F)cc2c1=O [CIPROFLOXACIN],–,125,62.5,125,–,125
OC(Cn1cncn1)(Cn1cncn1)c1ccc(F)cc1F [FLUCONAZOLE],62.5,–,–,–,125,–
CN(C)c1ccc(/C=C/C(=O)c2ccc(NC(=O)CSc3nc4ccccc4[nH]3)cc2)cc1,125,125,125,31.2,125,125
O=C(CSc1nc2ccccc2[nH]1)Nc1ccc(C(=O)/C=C/c2ccc(O)cc2)cc1,125,250,31.2,62.5,125,125
O=C(CSc1nc2ccccc2[nH]1)Nc1ccc(C(=O)/C=C/c2ccccc2[N+](=O)[O-])cc1,250,250,31.2,31.2,250,250
COc1cc(/C=C/C(=O)c2ccc(NC(=O)CSc3nc4ccccc4[nH]3)cc2)cc(OC)c1OC,250,125,31.2,31.2,125,250
COc1ccc(OC)c(/C=C/C(=O)c2ccc(NC(=O)CSc3nc4ccccc4[nH]3)cc2)c1,125,125,31.2,31.2,250,125
COc1ccc(/C=C/C(=O)c2ccc(NC(=O)CSc3nc4ccccc4[nH]3)cc2)cc1OC,62.5,125,62.5,31.2,125,250
O=C(CSc1nc2ccccc2[nH]1)Nc1ccc(C(=O)/C=C/c2ccc(Br)cc2)cc1,125,125,125,31.2,250,125
O=C(CSc1nc2ccccc2[nH]1)Nc1ccc(C(=O)/C=C/c2ccccc2O)cc1,125,31.2,62.5,31.2,62.5,125
COc1ccc(/C=C/C(=O)c2ccc(NC(=O)CSc3nc4ccccc4[nH]3)cc2)cc1,125,250,31.2,62.5,125,250
O=C(CSc1nc2ccccc2[nH]1)Nc1ccc(C(=O)/C=C/c2ccc(Cl)cc2)cc1,125,125,125,62.5,250,250
O=C(CSc1nc2ccccc2[nH]1)Nc1ccc(C(=O)/C=C/c2c(O)ccc3ccccc23)cc1,62.5,62.5,62.5,62.5,125,250
